Ends that are not written are not given here.

Assay [1] relates to second PSD95 PDZ domain. The note with it: cited from earlier work. From the text: (§1) In order to gain insight into the pattern recognition differences of the PDZ domains that belong to the same class but are able to differentiate between peptide ligands sharing the class-defining C-terminal consensus, we investigated a particular case of this general puzzle, namely, the differences in recognition preferences between the second and third PDZ domains of PSD95, which are classified as type I PDZ domains but are known to discriminate between various X-(S/T)-X-(V/I/L)-COOH ligands, [18]. In Fig. 5A we compare two sets of C-terminal sequences. The first set represents the s ...

The test system of assay [2] is first PSD95 PDZ domain. The note with it: cited from earlier work.
Excerpt: as §1

The test system of assay [3] is third PSD95 PDZ domain. The note with it: cited from earlier work.
Excerpt: as §1

Assay [4] concerns PSD95-PDZ2. In words: peptide ELISA on immobilized GST-PDZ fusion. It is filed as binding. The note with it: Fig. 3. From the text: (§2) Figure 3 Binding of 126 proteomic fragments (natural ligands) to six PDZ domains of PSD95 and SAP97. Binding histograms were obtained by peptide ELISA performed on purified GST fusions of the indicated domains immobilized in micro-titer plate wells as described previously. The X axis indicates the i.d. numbers of natural ligands (see Table S2). The Y axis indicates the peptide ELISA kinetics slope value in arbitrary units (a.u.). The 127th and 128th wells in each of the six sets were loaded with irrelevant peptides to indicate background signal. To illustrate internal consistency of the affinity evaluations obtained by peptide ELISA and their external consistency with the previously published affinity measurements, the reported affinities of the five PDZ domain-ligand pairs obtained by three different research groups using fluorescence polarization, [18], [32] are shown.
(§3) Wells of microtiter plates were coated with 1 µg of the indicated GST-PDZ domain fusions, washed with TBS-T and blocked with 1% BSA in the same way as described above for phage ELISA. Individual biotinylated peptides (30 ng) were pre-incubated with 1 µg of streptavidin-HRP conjugate (Pierce) in 300 µl of TBS-T for 30 min at RT. One hundred µl of the peptide-streptavidin-HRP conjugate were added to 100 µl of TBS-T left in each coated well after the final wash of the protein immobilization/blocking procedure. Microtiter plates were incubated for 1 hour at RT, and then washed 5 (x1mL) times with TBS-T. The amounts of peptides retained were quantified colorimetrically by adding soluble HRP substrate (ABTS/H2O2) and measuring ELISA kinetic slopes. ELISA readings were taken on a SpectraMAX190 plate reader (Molecular Devices) at 405 nm. To ensure reproducibility, all peptide ELISA experiments presented were repeated at least three times in at least three separate experiments performed by two different experimenters.
Background: An ELISA detects its analyte on a solid surface through an enzyme-linked reagent.

Assay [5] concerns SAP97-PDZ2. In words: peptide ELISA on immobilized GST-PDZ fusion. To be noted: Fig. 3. In kind it is binding.
Excerpt: as §2, §3

The subject of assay [6] is PSD95-PDZ3. In words: peptide ELISA on immobilized GST-PDZ fusion. It is filed as binding. To be noted: Fig. 3.
Excerpt: as §2, §3

The test system of assay [7] is PSD95-PDZ3. In words: phage ELISA on immobilized GST-PDZ fusion. It is filed as binding. To be noted: Fig. 1 and not shown. On the procedure: Binding histograms were obtained by individual phage ELISA performed on purified GST fusions of the indicated domains immobilized in micro-titer plate wells [40]. For accurate relative affinity evaluations and cross-domain comparison, the slopes of individual ELISA kinetics were determined and normalized by the highest slope value in each of the six sets shown. The 96th well in each set was loaded with a library aliquot to indicate background. Axis X indicates identification (i.d.) numbers of individual artificial ligands (see individual ligand sequences together with their i.d. numbers in Table S1). Axis Y indicates the normalized relative affinity. The domain organization of the PSD95 and SAP97 proteins is shown above histograms.
GST fusion-coated microtiter ELISA plates (COSTAR) were prepared by passive immobilization of 1 µg of the indicated GST fusion proteins (Fig. 1) per well in 200 µl of 0.1M NaHCO3, pH 8.0, overnight at 4°C. Following protein coating, plates were blocked by adding 150 µl of 1% BSA in TBS for 1 hour at RT. Following incubation, the wells with immobilized target proteins were washed 5 (x1ml) times with TBS-T. One hundred µl of freshly prepared individual phage lysate was added to the ELISA plate wells and incubated for 1 hour at RT. Following incubation, unbound phages were washed away with TBS-T and the amount of retained phages was determined with polyclonal T7 phage-specific antibodies followed by monoclonal anti-rabbit antibodies conjugated to horseradish peroxidase (HRP) (Amersham Pharmacia). The individual phage ELISA kinetics were followed and quantified colorimetrically using soluble HRP substrate (ABTS/H2O2). ELISA readings were taken on a SpectraMAX190 plate reader (Molecular Devices) at 405 nm. To ensure reproducibility, each of the individual phage ELISA binding histograms presented was obtained at least three times in at least three separate experiments performed by two different experimenters.

VNKSKLLTDV-OH [Kv1.1]: in assay [1], the “interaction with the second PSD95 PDZ domain” value was “bind”. Moreover, in assay [2], the “interaction with the first PSD95 PDZ domain” value is listed as “bind”. Besides, in assay [3], the “interaction with the third PSD95 PDZ domain” value was “fail to interact”.

As to KKMPSIESDV-OH [NR2A], the “interaction with the second PSD95 PDZ domain” value in assay [1] is given as “bind”. Moreover, the “interaction with the first PSD95 PDZ domain” value in assay [2] is recorded as “bind”. In assay [3], the “interaction with the third PSD95 PDZ domain” value is recorded as “fail to interact”.

Regarding EKLSSIESDV-OH [NR2B], the “interaction with the second PSD95 PDZ domain” value in assay [1] is “bind”. Moreover, the “interaction with the first PSD95 PDZ domain” value in assay [2] is recorded as “bind”. For the same substance, in assay [3], the “interaction with the third PSD95 PDZ domain” value was “fail to interact”.

On to “IADESDPAESMESLV> [compound 017, N-terminally biotinylated 15-mer proteomic fragment, SWISS-PROT P23470, receptor-type tyrosine protein phosphatase gamma]”, for which the “binding to the second PDZ domain of PSD95” value in assay [4] is on record as “bind to the second PDZ domains”. In addition, the “binding to the second PDZ domain of SAP97” value in assay [5] is on record as “bind to the second PDZ domains”. The “binding to the third PDZ domain of PSD95” value in assay [6] is reported as “not to their third PDZ domains”.

Consider TTGKKRRWYHSF> [compound 19], for which the “interaction with PSD95-PDZ3 in vitro” value in assay [7] was “interacts selectively and with reasonable affinity”.

Take TRGTKRSWYHSF> [compound 17]: in assay [7], the “interaction with PSD95-PDZ3 in vitro” value is “interacts selectively and with reasonable affinity”.

Turning to VNITKMLTDV-OH [Kv1.2], in assay [1], the “interaction with the second PSD95 PDZ domain” value is “bind”. The “interaction with the first PSD95 PDZ domain” value in assay [2] was “bind”. Besides, the “interaction with the third PSD95 PDZ domain” value in assay [3] is reported as “fail to interact”.

TRGTKRSWYYSF> [compound 20]: the “interaction with PSD95-PDZ3 in vitro” value in assay [7] is “interacts selectively and with reasonable affinity”.

For the substance TSGTKRSWYHSF> [compound 18], the “interaction with PSD95-PDZ3 in vitro” value in assay [7] was “interacts selectively and with reasonable affinity”.

Consider “ALPDGNIAESLESLV> [compound 018, N-terminally biotinylated 15-mer proteomic fragment, SWISS-PROT P23471, receptor-type tyrosine protein phosphatase zeta]”, for which, in assay [4], the “binding to the second PDZ domain of PSD95” value is listed as “bind to the second PDZ domains”. The “binding to the second PDZ domain of SAP97” value in assay [5] is “bind to the second PDZ domains”. Besides, the “binding to the third PDZ domain of PSD95” value in assay [6] is reported as “not to their third PDZ domains”.

For the substance VNIKKIFTDV-OH [Kv1.3], the “interaction with the second PSD95 PDZ domain” value in assay [1] is “bind”. For the same substance, in assay [2], the “interaction with the first PSD95 PDZ domain” value is recorded as “bind”. In addition, the “interaction with the third PSD95 PDZ domain” value in assay [3] is listed as “fail to interact”.

The values are drawn from publication PMC1978516, “The PDZ Domain as a Complex Adaptive System” (PLoS ONE, 2007).
